Counter-ions that a name gives are not always drawn.
Tested on: healthy beagle dogs
Assay: Subchronic action on blood cholesterol values of dogs (feeding experiment)
Assay type: in vivo, dog
Conditions: 8 mg/kg p.o. daily, after 2-week administration, cholestyramine (4 g/100 g of feed) in feed, compared with serum cholesterol before the administration period
Protocol: The subchronic action of the disubstituted pyridines on blood cholesterol values of dogs was tested in feeding experiments extending over several weeks. For this, the substance to be investigated was given p.o. once daily in a capsule to healthy beagle dogs together with the feed over a time period of several weeks. In addition, during the entire experimental period, i.e. before, during and after the administration period, the substance cholestyramine (4 g/100 g of feed) to be investigated was mixed with the feed as the […] sequestrant. Twice weekly, venous blood was taken from the dogs and the serum cholesterol was determined enzymatically. The serum cholesterol values during the administration period were compared with the serum cholesterol values before the administration period (controls).

CC(C)c1nc(C(C)C)c(/C=C/C(O)CC(O)CC(=O)O)c(-c2ccc(F)cc2)c1/C=C/C(O)CC(O)CC(=O)O (stereo not shown) [Na salt of Example 8, 2,6-diisopropyl 4-(4-fluorophenyl)-3,5-di-(sodiumerythro-(E)-3,5-dihydroxy-hept-6-enoat-7-yl)-pyridine]
Lowering of the serum cholesterol: about 22.4%

Reference: patent US5502057A, “Polysubstituted pyridines useful for treating lipoproteinanaemia and arteriosclerosis” (Bayer Aktiengesellschaft, priority 1988, dated 1996)
